Where only a bound is given, the exact number is not on record here.

The test system of series [1] is C57BL/6 mice. Kind of series: In vivo delivery of luciferase mRNA lipid nanoparticles in mice (bioluminescence imaging). As to conditions: intravenous, single dose 0.5 mg/kg luciferase mRNA. The gist of the method:
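Female C57BL/6 mice, 6-8 weeks old, received luciferase mRNA lipid nanoparticles as a single intravenous dose of 0.5 mg/kg mRNA. At 6 h, D-luciferin given intraperitoneally; 10 min later, mice were imaged under isoflurane anaesthesia. Values are group mean fluorescence intensity and total photon count.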

Series [2] is described as follows: Clearance rate of ionizable lipids in vivo (liver content by LC-MS/MS). The following applies: C57 WT female mice, tail vein, 100 μL unloaded LNP (0.1 mg/mL). As to the method:
The 6-8 weeks old C57 WT female mice (n=3) were injected by tail vein administration of 100 μL of unloaded LNP (0.1 mg/mL) formed from the ionizable lipid, cholesterol, DSPC, and DMG-PEG 2000 at a ratio of 50:38.5:10:1.5. The experimental animals were executed by removing the cervical vertebrae and dissected for the liver at 24 h and 72 h after administration, respectively, while the same batch of non-dosed experimental animal livers were used as a blank control group. Water was added to the liver sample for homogenization, and the protein was precipitated. The content of the ionizable lipid in the sample was quantitatively analyzed using LC-MS/MS in comparison to a calibration standard prepared from matched blank liver tissues.

Series [3] in a line: Particle size and PDI of lipid nanoparticles by dynamic light scattering. The format is physicochemical. As to conditions: lipid nanoparticles with luciferase mRNA; ionizable lipid/cholesterol/DSPC/DMG-PEG2000 50/38.5/10/1.5 mol%. The gist of the method:
(§1)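 LNPs of ionizable lipid/cholesterol/phospholipid/PEG-lipid (50/38.5/10/1.5 mol%, N/P 6) were formed by microfluidic mixing with mRNA in pH 4.5 acetate, then buffer-exchanged by ultrafiltration. Size and PDI were measured by DLS. Encapsulation came from RiboGreen fluorescence (485/528 nm) in TE pH 7.5, with and without 0.5% Triton at 37 °C for 30 min.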

Series [4] in a line: Encapsulation efficiency of lipid nanoparticles (Quant-it RiboGreen RNA Assay). It counts as physicochemical. The following applies: lipid nanoparticles with luciferase mRNA. An outline of the steps:
as §1

In series [5] the test system is HEK293T cells. The series is described as follows: Cytotoxicity testing with CCK-8 reagent. The format is cell-based, human. The following applies: CCK-8, 24 h, relative to PBS negative control. Here is the method: (§2) The delivery effect and safety of nanoparticles encapsulated with luciferase mRNA were evaluated at the cellular level in vitro. The cells used in the assay were human embryonic kidney cells 293 (HEK293T cells) cultured in DMEM (Dulbecco's Modified Eagle Medium) (purchased from Thermo Fisher) containing 10% fetal bovine serum and 5% penicillin-streptomycin double antibiotics at a indoor temperature of 37° C. and a CO2 concentration of 5%. The cells were uniformly dispersed and spread in 48-well plates, and incubated in the incubator for 24 h. Then a solution of the lipid nanoparticles encapsulated with luciferase mRNA were added. After 24 h, the cells were lysed, and the intracellular expression intensity and relative light units (RLU) of luciferase in each type of lipid nanoparticles were measured with a luciferase detection reagent (purchased from Promega). The higher the intensity of expression, the higher the delivery efficiency of the lipid material at the cellular level. […] The absorbance values were read on a multifunctional microplate reader at an absorbance band of 450 nm. The ratio of the absorbance value of the nanoparticle-treated cells to that of the negative control was used as a characterization parameter for cell viability.
In general terms: Formazan colour is commonly taken as a measure of viable cells.

The subject of series [6] is HEK293T cells. The series is described as follows: In vitro delivery efficiency of luciferase mRNA nanoparticles (luciferase expression). The format is cell-based, human. As to conditions: 24 h. As to the method: as §2

`CCCCCCCCCOC(=O)CCCCCCCN(CCO)CCCCCCC(C)(C)C(=O)OC(CCCCCCCC)CCCCCCCC` [1a]: the “Total photon count in vivo at 6 hours after administration (Total Flux)” value (“Total photon count in vivo at 6 hours” for short) in series [1] amounted to 3.52E+10. Further, in series [2], the “Percentage of cationic lipids in the liver in the total dose, 24 h after administration (%)” value (“Percentage … 24 h after administration (%)” for short) is under 1% and the “Percentage of cationic lipids in the liver in the total dose, 72 h after administration (%)” value (shortened to “Percentage … 72 h after administration (%)”) is recorded as 0%. Further, in series [3], the “Particle size (nm)” value came out at 113.08 nm and the “Particle-size distribution (PDI)” value was 0.022. In addition, in series [4], the “Encapsulation efficiency (%)” value turned out to be 94.61%.

Turning to `CCCCCCCCCC(=O)OCC(C)(C)CCCCCN(CCO)CCCCCCCC(=O)OC(CCCCCCCC)CCCCCCCC` [1b], the “Total photon count in vivo at 6 hours” value in series [1] was 9.34E+10. In series [2], the “Percentage … 24 h after administration (%)” value came to 15 ± 4.2% and the “Percentage … 72 h after administration (%)” value is given as under 1%. For the same molecule, in series [3], the “Particle size (nm)” value is given as 88.59 nm and the “Particle-size distribution (PDI)” value is reported as 0.031. Further, the “Encapsulation efficiency (%)” value in series [4] came to 89.89%.

For the molecule `CCCCCCCCCC(=O)OCC(C)(C)CCCCCN(CCCCO)CCCCCCCC(=O)OC(CCCCCCCC)CCCCCCCC` [3b], in series [1], the “Total photon count in vivo at 6 hours” value was 1.41E+11. Also, in series [2], the “Percentage … 24 h after administration (%)” value was 12 ± 3.8% and the “Percentage … 72 h after administration (%)” value was under 1%. In addition, in series [3], the “Particle size (nm)” value was found to be 102.32 nm and the “Particle-size distribution (PDI)” value was 0.015. Moreover, in series [4], the “Encapsulation efficiency (%)” value amounted to 74.43%.

Consider `CCCCCCCCCOC(=O)CCCCCCCN(CCCO)CCCCCCC(C)(C)C(=O)OC(CCCCCCCC)CCCCCCCC` [4a], for which the “Total photon count in vivo at 6 hours” value in series [1] worked out at 3.25E+10. For the same molecule, in series [2], the “Percentage … 24 h after administration (%)” value was under 1% and the “Percentage … 72 h after administration (%)” value was determined as 0%. Also, in series [3], the “Particle size (nm)” value was 103.7 nm and the “Particle-size distribution (PDI)” value amounted to 0.005. In addition, the “Encapsulation efficiency (%)” value in series [4] is given as 92.87%.

As to `CCCCCCCCCC(=O)OCC(C)(C)CCCCCN(CCO)CCCCCCCC(=O)OCCC(CCCCCC)CCCCCC` [10b], the “Total photon count in vivo at 6 hours” value in series [1] was found to be 3.15E+10. Moreover, in series [2], the “Percentage … 24 h after administration (%)” value was found to be 5 ± 3.1% and the “Percentage … 72 h after administration (%)” value was under 1%. Besides, in series [3], the “Particle size (nm)” value is reported as 114.72 nm and the “Particle-size distribution (PDI)” value was found to be 0.052. The “Encapsulation efficiency (%)” value in series [4] was found to be 72.72%.

In the case of `CCCCCCCCCC(=O)OCC(C)(C)CCCCCN(CCO)CCCCCCCC(=O)OCCCCC(CCCC)CCCC` [12b], in series [1], the “Total photon count in vivo at 6 hours” value amounted to 1.19E+10. For the same molecule, in series [2], the “Percentage … 24 h after administration (%)” value is recorded as under 1% and the “Percentage … 72 h after administration (%)” value came out at 0%. Moreover, in series [3], the “Particle size (nm)” value was 104.60 nm and the “Particle-size distribution (PDI)” value stood at 0.031. Moreover, the “Encapsulation efficiency (%)” value in series [4] came to 91.04%.

Regarding `CCCCCCCCCC(=O)OCC(C)(C)CCCCCN(CCO)CCCCCCCC(=O)OCC(CCCCCCC)CCCCCCC` [13b], the “Total photon count in vivo at 6 hours” value in series [1] is given as 1.81E+11. In series [2], the “Percentage … 24 h after administration (%)” value amounted to 8 ± 2.7% and the “Percentage … 72 h after administration (%)” value was under 1%. Moreover, in series [3], the “Particle size (nm)” value was determined as 99.02 nm and the “Particle-size distribution (PDI)” value worked out at 0.018. In addition, the “Encapsulation efficiency (%)” value in series [4] came out at 89.27%.

For `CCCCCCCCCOC(=O)CCCCCCCN(CCO)CCCCC(C)(C)CCC(=O)OC(CCCCCCCC)CCCCCCCC` [20a], the “Total photon count in vivo at 6 hours” value in series [1] worked out at 1.18E+11. Moreover, the “Cell viability (%)” value in series [5] was 105.11%. In series [3], the “Particle size (nm)” value was 102.13 nm and the “Particle-size distribution (PDI)” value turned out to be 0.032. In series [4], the “Encapsulation efficiency (%)” value is 87.83%. In addition, the “Luciferase luminescence of cell lysate” value in series [6] amounted to 6.55E+06 RLU.

For the molecule `CCCCCCCCCC(=O)OCC1(CCCCCN(CCO)CCCCCCCC(=O)OCC(CCCCCCC)CCCCCCC)CC1` [22b], the “Total photon count in vivo at 6 hours” value in series [1] was 8.78E+10. In series [2], the “Percentage … 24 h after administration (%)” value was 2% and the “Percentage … 72 h after administration (%)” value was under 1%. Also, in series [3], the “Particle size (nm)” value stood at 99.44 nm and the “Particle-size distribution (PDI)” value stood at 0.050. In addition, in series [4], the “Encapsulation efficiency (%)” value turned out to be 93.03%.

Take `CCCCCCCCCCOC(=O)OCCCCCCN(CCO)CCCCCC(C)(C)COC(=O)CCC(CCCCCC)CCCCCC` [26b]: in series [1], the “Total photon count in vivo at 6 hours” value came out at 6.53E+10. Besides, in series [2], the “Percentage … 24 h after administration (%)” value worked out at 8% and the “Percentage … 72 h after administration (%)” value is listed as under 1%. For the same molecule, in series [3], the “Particle size (nm)” value came out at 113.77 nm and the “Particle-size distribution (PDI)” value was determined as 0.14. The “Encapsulation efficiency (%)” value in series [4] stood at 94.58%.

With `CCCCCCCCCOC(=O)OCCCCCCN(CCO)CCCCCCC(C)(C)C(=O)OC(CCCCCCCC)CCCCCCCC` [30a], the “Total photon count in vivo at 6 hours” value in series [1] amounted to 8.32E+10. Besides, in series [2], the “Percentage … 24 h after administration (%)” value came to 4% and the “Percentage … 72 h after administration (%)” value was under 2%. In addition, in series [3], the “Particle size (nm)” value is 107.40 nm and the “Particle-size distribution (PDI)” value is 0.12. Moreover, the “Encapsulation efficiency (%)” value in series [4] was determined as 86.94%.

For `CCCCCCCCCCC(=O)OCC(C)(C)CCCCCN(CCCCCCCC(=O)OC(CCCCCCCCC)CCCCCCCCC)C(=O)SCCCN(C)C` [39b], in series [1], the “Total photon count in vivo at 6 hours” value is 7.16E+10. Also, in series [2], the “Percentage … 24 h after administration (%)” value is on record as under 1% and the “Percentage … 72 h after administration (%)” value is under 1%. Further, in series [3], the “Particle size (nm)” value was determined as 102.67 nm and the “Particle-size distribution (PDI)” value stood at 0.07. In addition, the “Encapsulation efficiency (%)” value in series [4] came out at 93.58%.

Regarding `CCCCC#CCCCOC(=O)CCCCCCCN(CCO)CCCCCCC(C)(C)C(=O)OC(CCCCCCCC)CCCCCCCC` [56a], the “Total photon count in vivo at 6 hours” value in series [1] is reported as 3.23E+10. Besides, in series [2], the “Percentage … 24 h after administration (%)” value is under 1% and the “Percentage … 72 h after administration (%)” value is recorded as under 1%. For the same molecule, in series [3], the “Particle size (nm)” value is 86.37 nm and the “Particle-size distribution (PDI)” value was 0.09. Besides, the “Encapsulation efficiency (%)” value in series [4] was determined as 82.84%.

For `CCCCC/C=C\C/C=C\CCCCCCCCC(CCCCCCCC/C=C\C/C=C\CCCCC)OC(=O)CCCN(C)C` [MC3, DLin-MC3-DMA, reference compound], the “Total photon count in vivo at 6 hours” value in series [1] was 8.04E+09. Besides, in series [5], the “Cell viability (%)” value was 97.84%. In series [3], the “Particle size (nm)” value is 96.83 nm and the “Particle-size distribution (PDI)” value was determined as 0.04. Further, the “Encapsulation efficiency (%)” value in series [4] stood at 95.62%. In addition, in series [6], the “Luciferase luminescence of cell lysate” value came out at 2.95E+06 RLU.

Values taken from US12617752B2, “Rapidly metabolized lipid compound” (Beijing Jitai Life Sciences Ltd, priority 2023, dated 2026).
